Key:
[1] = test system: CLP model of sepsis in mice; experiment: CLP study, survival of mice treated with chito-oligomers; format: in vivo; conditions: for protection over 'Antibiotic-alone' group: intervention at 6 hours, 7 days; for survival over 7 days: intervention at 6 hours post-surgery, about 250 μg single IP dose with antibiotics, FIG. 5A
Protocol: The CLP study with 7-9 week old C57BL/6 or BALB/c males was conducted, at animal house facility at TheraIndx Lifesciences Pvt. Ltd. (Bangalore, India) and Institute of Life Sciences (Bhubaneswar, India) respectively, in accordance with ethical practices laid down in the CPCSEA guidelines for animal care and use (CPCSEA, 2003). The Institutional Animals Ethics Committee (IAEC) of the test facility approved the studies. The CLP was performed as described before (Rittirsch et al., 2009; Toscano et al., 2011). […] About 500 μl saline was administered subcutaneously immediately after surgery. Tramadol (about 20 mg/kg) was injected subcutaneously for post-operative analgesia. […] A separate group of C57BL/6 mice received single IP dose of about 250 μg of 6-mer, 7-mer or 8-mer at either 6 hour or 24 hour post CLP. All groups except the CLP alone (control) received a single dose of standard antibiotics (amoxicillin and clavulanate) 6 hour post CLP. Control group was injected with saline solution. Total of 92 C57BL/6 and 18 BALB/c mice were used in the study.
Experimental data were analyzed using GraphPad Prism 8 (GraphPad Software, Inc.). Kruskal-Wallis test and one way ANOVA test was used for analysis of cytokines and reporter assay values. Log-rank (Mantel-Cox) test was utilized for survival analysis. P-values, P<0.05 were considered statistically significant and are denoted by […] if calculated P-values were lower than P=0.05.

[2] = test system: CLP mice; experiment: Plasma cytokine levels in CLP mice (Bio-Plex multiplex assay); format: in vivo; conditions: for plasma IL-6 levels: 6 hours post intervention, versus untreated, FIG. 5C; for levels of IL-1b over time / levels of MCP-1 over time / levels of TNF-α over time: individual CLP mice, 6 hours versus 48 hours post treatment
Protocol: The CLP study with 7-9 week old C57BL/6 or BALB/c males was conducted, at animal house facility at TheraIndx Lifesciences Pvt. Ltd. (Bangalore, India) and Institute of Life Sciences (Bhubaneswar, India) respectively, in accordance with ethical practices laid down in the CPCSEA guidelines for animal care and use (CPCSEA, 2003). The Institutional Animals Ethics Committee (IAEC) of the test facility approved the studies. The CLP was performed as described before (Rittirsch et al., 2009; Toscano et al., 2011). Sham control mice had undergone surgery with ceacal manipulations without ligation and puncture. About 500 μl saline was administered subcutaneously immediately after surgery. Tramadol (about 20 mg/kg) was injected subcutaneously for post-operative analgesia. BALB/c mice were injected with single IP close of about 500 μg GA132 (GA is the internal code which has been used by the inventors of the present invention) while C57BL/6 mice received single IP dose of about 300 μg or about 700 μg GA132 6 hours post CLP. A separate group of C57BL/6 mice received single IP dose of about 250 μg of 6-mer, 7-mer or 8-mer at either 6 hour or 24 hour post CLP. All groups except the CLP alone (control) received a single dose of standard antibiotics (amoxicillin and clavulanate) 6 hour post CLP. Control group was injected with saline solution. Total of 92 C57BL/6 and 18 BALB/c mice were used in the study.
The Mutiplex immunoassay for Human and Mouse IL-1b, IL-6, IL-10, TNF-α and MCP-1 were purchased from Bio-Rad. For human cytokines, 1×10^6 PBMCs were seeded in 24 well plate a day before and treated with 100 ng/ml LPS or 50 μg/ml GA132 for 24 hours. The culture supernatant from three independent biological replicates was collected and used for the assay without dilution. For mice cytokines, the plasma samples from mice were collected 6 or 48 hours post treatment and diluted in PBS (Phosphate Buffered Saline) in 1:2 before assay. The assay was performed as per manufacturers' method and the beads were read and analyzed in Bio-Plex® MAGRIX™ Multiplex Reader (Bio-Rad) (https://www.bio-rad.com/webroot/web/pdg/lsr/literature/10014905.pdf).

[3] = biological target: TLR2 (Homo sapiens, UniProt O60603); experiment: HEK-Blue TLR2 reporter assay (NF-kb and AP-1 driven SEAP); format: cell-based; design: host or cells: HEK293 (HEK-Blue TLR2 reporter cells); conditions: HEK-Blue TLR2 reporter cells, 50 μg/ml
Text: P1 fraction tested on reporter cell lines where TLR2, TLR4 or TLR3 is expressed in HEK293 cells and activation of the receptors is observed by NP-kB and AP-1 promoter driven SEAP enzyme secretion.
HEK-Blue TLR2, HEK-Blue TLR3 and HEK-Blue TLR4 reporter cells expressing SEAP (secreted embryonic alkaline phosphatase) enzyme under NF-kb and AP-1 promoter (Cat. no.# hkb-htlr2, hkb-htlr3 and hkb-htlr4) were purchased from InvivoGen (USA). Human Peripheral blood mononuclear cells (PBMCs) (Cat. no.# CL003-25) were purchased from Himedia laboratories (India). HEK based cells and PBMCs were cultured DMEM and RPMI media, respectively. The cells were maintained at 37° C. incubator with 5% CO2. The culture media was supplemented with 10% Fetal Calf Serum (Gibco) along with standard antibiotics. HEK-Blue selection antibiotics (InvivoGen, Cat. no.# hb-sel, ant-zn and ant-bl) were added as per manufacturers' instructions.
2×10^4 HEK-Blue reporter cells were seeded, in each well of a 96 well plate, in HEK-Blue detection media (InvivoGen, Cat. no.# hb-det3) along with the 50 μg/ml of the chito-oligomers. […] The treated cells were incubated at about 37° C. for about 16 hours and absorbance (O.D.) was measured at 620 nm in either TECAN Infinite® 200 PRO or Thermo Scientific Varioskan LUX multimode reader.

[4] = C57BL/6 CLP mice, single dose at 24 hours post-surgery
[5] = CLP mice, 48 hours, versus untreated group, FIG. 5D

Chain of TLR2 (O60603 21-784): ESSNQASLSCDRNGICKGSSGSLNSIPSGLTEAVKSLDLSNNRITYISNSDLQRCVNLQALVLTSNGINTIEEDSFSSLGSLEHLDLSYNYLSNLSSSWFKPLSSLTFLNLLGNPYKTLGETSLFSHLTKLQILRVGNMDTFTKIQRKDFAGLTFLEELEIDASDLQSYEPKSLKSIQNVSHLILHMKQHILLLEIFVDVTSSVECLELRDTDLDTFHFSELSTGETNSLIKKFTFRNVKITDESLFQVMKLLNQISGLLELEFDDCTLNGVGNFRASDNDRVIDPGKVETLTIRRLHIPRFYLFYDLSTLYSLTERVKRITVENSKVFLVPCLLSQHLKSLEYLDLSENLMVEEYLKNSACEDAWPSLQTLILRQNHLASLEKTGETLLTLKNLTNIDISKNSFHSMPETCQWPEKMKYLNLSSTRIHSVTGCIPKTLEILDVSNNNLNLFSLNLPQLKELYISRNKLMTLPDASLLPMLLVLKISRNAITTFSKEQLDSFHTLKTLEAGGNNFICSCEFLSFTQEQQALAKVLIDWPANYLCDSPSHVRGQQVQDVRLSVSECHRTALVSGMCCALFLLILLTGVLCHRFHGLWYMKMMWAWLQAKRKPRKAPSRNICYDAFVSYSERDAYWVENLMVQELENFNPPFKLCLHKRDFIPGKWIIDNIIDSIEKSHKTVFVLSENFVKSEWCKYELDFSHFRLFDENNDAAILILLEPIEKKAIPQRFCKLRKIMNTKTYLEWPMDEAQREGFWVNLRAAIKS

Row | Compound | protection over 'Antibiotic-alone' group ([1]; C57BL/6 CLP mice) | survival compared to 'Antibiotic alone' group [1, 4] | plasma IL-6 levels ([2]; CLP mice) | levels of IL-1b over time [2] | levels of MCP-1 over time [2] | levels of TNF-α over time [2] | survival over 7 days ([1]; C57BL/6 CLP mice) | survival up to 7 days ([1]; C57BL/6 CLP mice, single dose at 24 hours post-surgery, FIG. 5B) | mortality ([1]; single dose of 200-250 μg 6 hours and 24 hours post-CLP, till day 7, FIG. 4) | plasma IL-1b [2, 5] | plasma IL-10 [2, 5] | plasma MCP-1 [2, 5] | plasma TNF-α [2, 5] | activity in TLR2 reporter cells compared between oligomers [3]
1 | CC(=O)N[C@H]1[C@H](O[C@H]2[C@H](O)[C@@H](NC(C)=O)[C@H](O[C@H]3[C@H](O)[C@@H](NC(C)=O)C(O)O[C@@H]3CO)O[C@@H]2CO)O[C@H](CO)[C@@H](O[C@@H]2O[C@H](CO)[C@@H](O[C@@H]3O[C@H](CO)[C@@H](O[C@@H]4O[C@H](CO)[C@@H](O)[C@H](O)[C@H]4NC(C)=O)[C@H](O)[C@H]3NC(C)=O)[C@H](O)[C@H]2NC(C)=O)[C@@H]1O (some centres unmarked) [6-mer, Hexa-N-acetyl Chitohexaose] | no additional protection | no change | significant decrease | no effect | no effect | no effect |  |  |  |  |  |  |  | 
2 | amoxicillin and clavulanate [Antibiotic—alone, reference compound] |  |  |  |  |  |  | 60% |  |  |  |  |  |  | 
3 | CC(=O)N[C@H]1[C@H](O[C@H]2[C@H](O)[C@@H](NC(C)=O)[C@H](O[C@H]3[C@H](O)[C@@H](NC(C)=O)[C@H](O[C@H]4[C@H](O)[C@@H](NC(C)=O)C(O)O[C@@H]4CO)O[C@@H]3CO)O[C@@H]2CO)O[C@H](CO)[C@@H](O[C@@H]2O[C@H](CO)[C@@H](O[C@@H]3O[C@H](CO)[C@@H](O[C@@H]4O[C@H](CO)[C@@H](O[C@@H]5O[C@H](CO)[C@@H](O)[C@H](O)[C@H]5NC(C)=O)[C@H](O)[C@H]4NC(C)=O)[C@H](O)[C@H]3NC(C)=O)[C@H](O)[C@H]2NC(C)=O)[C@@H]1O (some centres unmarked) [8-mer, Octa-N-acetyl Chitooctaose] | no additional protection | no change | reduced in 8-mer treated mice when compare to untreated mice but the difference was not found to be significant | increase | increase | increase | 40% |  |  |  |  |  |  | 
4 | CC(=O)N[C@H]1[C@H](O[C@H]2[C@H](O)[C@@H](NC(C)=O)[C@H](O[C@H]3[C@H](O)[C@@H](NC(C)=O)[C@H](O[C@H]4[C@H](O)[C@@H](NC(C)=O)C(O)O[C@@H]4CO)O[C@@H]3CO)O[C@@H]2CO)O[C@H](CO)[C@@H](O[C@@H]2O[C@H](CO)[C@@H](O[C@@H]3O[C@H](CO)[C@@H](O[C@@H]4O[C@H](CO)[C@@H](O)[C@H](O)[C@H]4NC(C)=O)[C@H](O)[C@H]3NC(C)=O)[C@H](O)[C@H]2NC(C)=O)[C@@H]1O (some centres unmarked) [7-mer, Hepta-N-acetyl Chitoheptaose] |  |  | significant decrease | significant reduction | significant reduction | significant reduction | around 90% | 80% | significant mortality reduction | significant reduction | significant reduction | significant reduction | significant reduction | significantly higher than 8-mer

From US20230105103A1, “THERAPEUTIC MOLECULES FOR COMBATING SEPSIS” (CENTRE FOR CELLULAR AND MOLECULAR PLATFORMS, priority 2019, published 2023)
